Data from patent US12528788B2, “Pesticidally active benzene- and azine-amide compounds” (SYNGENTA CROP PROTECTION AG, priority 2018, dated 2026).

Tests used:
Assay type in all cases: in vivo
Diabrotica balteata = assay: Example B1: Diabrotica balteata (corn root worm), maize sprouts sprayed, L2 larvae; conditions: 96 h, application rate of 200 ppm, 4 days after infestation, L2 larvae on maize sprouts, read-out: control in at least one of the two categories (mortality or growth inhibition)
Description: Example B1: Diabrotica balteata (Corn Root Worm)
Maize sprouts placed onto an agar layer in 24-well microtiter plates were treated with aqueous test solutions prepared from 10′000 ppm DMSO stock solutions by spraying. After drying, the plates were infested with L2 larvae (6 to 10 per well). The samples were assessed for mortality and growth inhibition in comparison to untreated samples 4 days after infestation.

Plutella xylostella [1] = assay: Example B14: Plutella xylostella (diamondback moth), 96-well artificial diet; conditions: 216 h, application rate of 500 ppm, 9 days after infestation
Description: Example B14: Plutella xylostella (Diamondback Moth)
96-well microtiter plates containing artificial diet were treated with aqueous test solutions, prepared from 10′000 ppm DMSO stock solutions, by a liquid handling robot. After drying, eggs (˜30 per well) were infested onto a netted lid which was suspended above the diet. The eggs hatch and L1 larvae move down to the diet. The samples were assessed for mortality 9 days after infestation.

Plutella xylostella [2] = assay: Example B5: Plutella xylostella (diamond back moth), artificial diet, 24-well, eggs; conditions: 192 h, application rate of 200 ppm, 8 days after infestation, read-out: control in at least one of the two categories (mortality or growth inhibition)
Description: Example B5: Plutella xylostella (Diamond Back Moth)
24-well microtiter plates with artificial diet were treated with aqueous test solutions prepared from 10′000 ppm DMSO stock solutions by pipetting. After drying, Plutella eggs were pipetted through a plastic stencil onto a gel blotting paper and the plate was closed with it. The samples were assessed for mortality and growth inhibition in comparison to untreated samples 8 days after infestation.

Spodoptera littoralis = assay: Example B9: Spodoptera littoralis (Egyptian cotton leaf worm), cotton leaf discs sprayed, L1 larvae; conditions: foliar, 72 h, application rate of 200 ppm, 3 days after infestation, read-out: control in at least one of the three categories (mortality, anti-feedant effect or growth inhibition)
Chilo suppressalis = assay: Example B4: Chilo suppressalis (striped rice stemborer), artificial diet, L2 larvae; conditions: 144 h, application rate of 200 ppm, 6 days after infestation, read-out: control in at least one of the three categories (mortality, anti-feedant effect or growth inhibition)
Description: Example B4: Chilo suppressalis (Striped Rice Stemborer)
24-well microtiter plates with artificial diet were treated with aqueous test solutions prepared from 10′000 ppm DMSO stock solutions by pipetting. After drying, the plates were infested with L2 larvae (6-8 per well). The samples were assessed for mortality, anti-feeding effect, and growth inhibition in comparison to untreated samples 6 days after infestation. Control of Chilo suppressalis by a test sample is given when at least one of the categories mortality, anti-feedant effect, and growth inhibition is higher than the untreated sample.

Myzus persicae = assay: Example B13: Myzus persicae (green peach aphid), 96-well sucrose solution; conditions: 120 h, application rate of 50 ppm, 5 days after infestation
Description: Example B13: Myzus persicae (Green Peach Aphid)
Test compounds prepared from 10′000 ppm DMSO stock solutions were applied by a liquid handling robot into 96-well microtiter plates and mixed with a sucrose solution. Parafilm was stretched over the 96-well microtiter plate and a plastic stencil with 96 holes was placed onto the plate. Aphids were sieved into the wells directly onto the Parafilm. The infested plates were closed with a gel blotting card and a second plastic stencil and then turned upside down. The samples were assessed for mortality 5 days after infestation.

Structure (SMILES)	percent control (mortality or growth inhibition) at 200 ppm (Diabrotica balteata)	mortality at 500 ppm (Plutella xylostella [1])	percent control (mortality or growth inhibition) at 200 ppm (Plutella xylostella [2])	percent control (mortality, anti-feedant effect or growth inhibition) at 200 ppm (Spodoptera littoralis)	percent control (mortality, anti-feedant effect or growth inhibition) at 200 ppm (Chilo suppressalis)	mortality at 50 ppm (Myzus persicae)
CC(c1cccnc1-c1ncccn1)N(CC1CC1)C(=O)c1cc(C(F)(F)F)cc(C(F)(F)F)c1 (stereo not drawn) [Compound P1, N-(cyclopropylmethyl)-N-[1-(2-pyrimidin-2-yl-3-pyridyl)ethyl]-3,5-bis(trifluoromethyl)benzamide]	≥ 80%	≥ 80%	–	–	–	–
CC(c1cnccc1-c1ncccn1)N(CC1CC1)C(=O)c1cc(C(F)(F)F)cc(C(F)(F)F)c1 (stereo not drawn) [Compound P2, N-(cyclopropylmethyl)-N-[1-(4-pyrimidin-2-yl-3-pyridyl)ethyl]-3,5-bis(trifluoromethyl)benzamide]	–	≥ 80%	≥ 80%	–	–	–
CC(c1ncccc1-c1ncccn1)N(CC1CC1)C(=O)c1cc(C(F)(F)F)cc(C(F)(F)F)c1 (stereo not drawn) [Compound P3, N-(cyclopropylmethyl)-N-[1-(3-pyrimidin-2-yl-2-pyridyl)ethyl]-3,5-bis(trifluoromethyl)benzamide]	≥ 80%	≥ 80%	≥ 80%	≥ 80%	–	–
CC(c1ncncc1-c1ncccn1)N(CC1CC1)C(=O)c1cc(C(F)(F)F)cc(C(F)(F)F)c1 (stereo not drawn) [Compound P6, N-(cyclopropylmethyl)-N-[1-(5-pyrimidin-2-ylpyrimidin-4-yl)ethyl]-3,5-bis(trifluoromethyl)benzamide]	≥ 80%	≥ 80%	≥ 80%	–	–	–
CC(c1nccnc1-c1ccccn1)N(CC1CC1)C(=O)c1cc(C(F)(F)F)cc(C(F)(F)F)c1 (stereo not drawn) [Compound P7, N-(cyclopropylmethyl)-N-[1-[3-(2-pyridyl)pyrazin-2-yl]ethyl]-3,5-bis(trifluoromethyl)benzamide]	≥ 80%	≥ 80%	≥ 80%	≥ 80%	–	–
CC(c1cnc(Cl)cc1-c1ncccn1)N(CC1CC1)C(=O)c1cc(C(F)(F)F)cc(C(F)(F)F)c1 (stereo not drawn) [Compound P8, N-[1-(6-chloro-4-pyrimidin-2-yl-3-pyridyl)ethyl]-N-(cyclopropylmethyl)-3,5-bis(trifluoromethyl)benzamide]	–	≥ 80%	≥ 80%	–	–	–
CC(c1nc(F)ccc1-c1ncccn1)N(CC1CC1)C(=O)c1cc(C(F)(F)F)cc(C(F)(F)F)c1 (stereo not drawn) [Compound P9, N-(cyclopropylmethyl)-N-[1-(6-fluoro-3-pyrimidin-2-yl-2-pyridyl)ethyl]-3,5-bis(trifluoromethyl)benzamide]	≥ 80%	≥ 80%	≥ 80%	≥ 80%	–	–
CC(c1cnc(C(F)(F)F)cc1-c1ncccn1)N(CC1CC1)C(=O)c1cc(C(F)(F)F)cc(C(F)(F)F)c1 (stereo not drawn) [Compound P10, N-(cyclopropylmethyl)-N-[1-[4-pyrimidin-2-yl-6-(trifluoromethyl)-3-pyridyl]ethyl]-3,5-bis(trifluoromethyl)benzamide]	–	≥ 80%	≥ 80%	≥ 80%	–	–
CC(c1nccnc1-c1ccccn1)N(CC1CC1)C(=O)c1cc(Cl)cc(C(F)(F)F)c1 (stereo not drawn) [Compound P11, 3-chloro-N-(cyclopropylmethyl)-N-[1-[3-(2-pyridyl)pyrazin-2-yl]ethyl]-5-(trifluoromethyl)benzamide]	≥ 80%	≥ 80%	≥ 80%	≥ 80%	–	–
CC(NC(=O)c1cc(C(F)(F)F)cc(C(F)(F)F)c1)c1nccnc1-c1ncccc1F (stereo not drawn) [Compound P13, N-[1-[3-(3-fluoro-2-pyridyl)pyrazin-2-yl]ethyl]-3,5-bis(trifluoromethyl)benzamide]	≥ 80%	–	≥ 80%	≥ 80%	≥ 80%	–
CC(NC(=O)c1cc(C(F)(F)F)cc(C(F)(F)F)c1)c1nccnc1-c1ccccn1 (stereo not drawn) [Compound P25, N-[1-[3-(2-pyridyl)pyrazin-2-yl]ethyI]-3,5-bis(trifluoromethyl)benzamide]	≥ 80%	≥ 80%	≥ 80%	≥ 80%	–	≥ 80%
CC(c1ccccc1-c1ncccn1)N(CC1CC1)C(=O)c1cc(C(F)(F)F)cc(C(F)(F)F)c1 (stereo not drawn) [Compound P26, N-(cyclopropylmethyl)-N-[1-(2-pyrimidin-2-ylphenyl)ethyl]-3,5-bis(trifluoromethyl)benzamide]	–	≥ 80%	≥ 80%	–	–	–
CC(c1ccccc1-c1ccccn1)N(CC1CC1)C(=O)c1cc(Cl)cc(C(F)(F)F)c1 (stereo not drawn) [Compound P27, 3-chloro-N-(cyclopropylmethyl)-N-[1-[2-(2-pyridyl)phenyl]ethyl]-5-(trifluoromethyl)benzamide]	–	≥ 80%	≥ 80%	–	–	–
CC(c1ccccc1-c1ccccn1)N(CC1CC1)C(=O)c1cc(C(F)(F)F)cc(C(F)(F)F)c1 (stereo not drawn) [Compound P28, N-(cyclopropylmethyl)-N-[1-[2-(2-pyridyl)phenyl]ethyl]-3,5-bis(trifluoromethyl)benzamide]	–	≥ 80%	–	–	–	–
CC(NC(=O)c1cc(OCC(F)F)cc(C(F)(F)F)c1)c1nccnc1-c1ncc(C2CC2)cn1 (stereo not drawn) [Compound P32, N-[1-[3-(5-cyclopropylpyrimidin-2-yl)pyrazin-2-yl]ethyl]-3-(2,2-difluoroethoxy)-5-(trifluoromethyl)benzamide]	–	–	≥ 80%	≥ 80%	≥ 80%	–
CC(NC(=O)c1cc(OC(F)F)cc(C(F)(F)F)c1)c1nccnc1-c1ncc(C2CC2)cn1 (stereo not drawn) [Compound P33, N-[1-[3-(5-cyclopropylpyrimidin-2-yl)pyrazin-2-yl]ethyl]-3-(difluoromethoxy)-5-(trifluoromethyl)benzamide]	≥ 80%	–	≥ 80%	≥ 80%	≥ 80%	–
CC(NC(=O)c1cc(OC(F)F)cc(C(F)(F)F)c1)c1nccnc1-c1ccc(F)cn1 (stereo not drawn) [Compound P35, 3-(difluoromethoxy)-N-[1-[3-(5-fluoro-2-pyridyl)pyrazin-2-yl]ethyl]-5-(trifluoromethyl)benzamide]	–	–	≥ 80%	–	–	–
CC(NC(=O)c1cc(C(F)(F)F)cc(C(F)(F)F)c1)c1nccnc1-c1ccc(Cl)cn1 (stereo not drawn) [Compound P36, N-[1-[3-(5-chloro-2-pyridyl)pyrazin-2-yl]ethyl]-3,5-bis(trifluoromethyl)benzamide]	–	–	–	–	≥ 80%	–
